# Assay results as given in patent US10336732B2, “1-heterocyclyl isochromanyl compounds and analogs for treating CNS disorders” (Sunovion Pharmaceuticals Inc., priority 2015, dated 2019).
# Tested on: mice
# Assay: Neuropharmacological assay (SmartCube), behavioral signature of compound-treated mice
# Type: in vivo
# Settings: i.p. 15 min before behavioral test, most efficacious dose(s) of 3 doses
# Summary of the method: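 Mice received compound i.p. in NMP/PEG/propylene glycol vehicle at 3 doses, 15 min before testing. Video-captured behavior was algorithmically compared with a reference-drug signature database.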
Structure (SMILES),AD: ADHD (probability that behavioral signature matches class),AG: analgesic (probability that behavioral signature matches class),AX: anxiolytic (probability that behavioral signature matches class),CE: cognitive enhancer (probability that behavioral signature matches class),DP: anti-depressant (probability that behavioral signature matches class),HA: hallucinogen (probability that behavioral signature matches class),MS: mood stabilizer (probability that behavioral signature matches class),PS: anti-psychotic (probability that behavioral signature matches class),SD: sedative hypnotic (probability that behavioral signature matches class),UN: uncharacterized CNS activity (probability that behavioral signature matches class)
"N#Cc1cccc2c1[C@H]([C@@H]1CCCN1)OCC2 [Compound I-38, (R)-1-((S)-pyrrolidin-2-yl)isochroman-8-carbonitrile]",+ (LOQ ≤ + <5%),++ (5% ≤ ++ <25%),++ (5% ≤ ++ <25%),+ (LOQ ≤ + <5%),++ (5% ≤ ++ <25%),+ (LOQ ≤ + <5%),+ (LOQ ≤ + <5%),+ (LOQ ≤ + <5%),+ (LOQ ≤ + <5%),+ (LOQ ≤ + <5%)
"COc1cccc2c1[C@H]([C@H]1CCCN1)OCC2 [Compound I-49, (R)-2-((R)-8-methoxyisochroman-1-yl)pyrrolidine]",+ (LOQ ≤ + <5%),++ (5% ≤ ++ <25%),++ (5% ≤ ++ <25%),++ (5% ≤ ++ <25%),++ (5% ≤ ++ <25%),+ (LOQ ≤ + <5%),++ (5% ≤ ++ <25%),++ (5% ≤ ++ <25%),++ (5% ≤ ++ <25%),++ (5% ≤ ++ <25%)
"Fc1ccc2c(c1)[C@@H](F)CO[C@H]2[C@@H]1CCCN1 [Compound I-138, (S)-2-((1R,4R)-4,6-difluoroisochroman-1-yl)pyrrolidine]",+ (LOQ ≤ + <5%),+ (LOQ ≤ + <5%),++ (5% ≤ ++ <25%),+ (LOQ ≤ + <5%),++ (5% ≤ ++ <25%),+ (LOQ ≤ + <5%),+ (LOQ ≤ + <5%),+++ (25% ≤ +++ <50%),+ (LOQ ≤ + <5%),++ (5% ≤ ++ <25%)
"Fc1ccc2c(c1)[C@H](F)CO[C@H]2[C@@H]1CCN1 [Compound I-135, (2S)-2-((1R)-4,6-difluoroisochroman-1-yl)azetidine]",+ (LOQ ≤ + <5%),++ (5% ≤ ++ <25%),++ (5% ≤ ++ <25%),++ (5% ≤ ++ <25%),++ (5% ≤ ++ <25%),+ (LOQ ≤ + <5%),++ (5% ≤ ++ <25%),+++ (25% ≤ +++ <50%),++ (5% ≤ ++ <25%),++ (5% ≤ ++ <25%)
"CC1(C)Cc2ccccc2[C@@H]([C@H]2CCCN2)O1 [Compound I-67, (R)-2-((S)-3,3-dimethylisochroman-1-yl)pyrrolidine]",+ (LOQ ≤ + <5%),+ (LOQ ≤ + <5%),+ (LOQ ≤ + <5%),+ (LOQ ≤ + <5%),+ (LOQ ≤ + <5%),+ (LOQ ≤ + <5%),+ (LOQ ≤ + <5%),+ (LOQ ≤ + <5%),+ (LOQ ≤ + <5%),+ (LOQ ≤ + <5%)
"c1ccc2c(c1)CCO[C@@H]2[C@@H]1CCCN1 [Compound I-17, (S)-2-((S)-isochroman-1-yl)pyrrolidine]",+ (LOQ ≤ + <5%),+ (LOQ ≤ + <5%),++ (5% ≤ ++ <25%),++ (5% ≤ ++ <25%),+++ (25% ≤ +++ <50%),+ (LOQ ≤ + <5%),+ (LOQ ≤ + <5%),++ (5% ≤ ++ <25%),+ (LOQ ≤ + <5%),+ (LOQ ≤ + <5%)
"Fc1cccc2c1CCO[C@H]2[C@@H]1CCCN1 [Compound I-13, (S)-2-((R)-5-fluoroisochroman-1-yl)pyrrolidine]",+ (LOQ ≤ + <5%),++ (5% ≤ ++ <25%),++ (5% ≤ ++ <25%),++ (5% ≤ ++ <25%),+++ (25% ≤ +++ <50%),+ (LOQ ≤ + <5%),++ (5% ≤ ++ <25%),++++ (50% ≤ ++++),+ (LOQ ≤ + <5%),++ (5% ≤ ++ <25%)
"Cc1cccc2c1[C@H]([C@@H]1CCCN1)OCC2 [Compound I-22, (S)-2-((R)-8-methylisochroman-1-yl)pyrrolidine]",+ (LOQ ≤ + <5%),++ (5% ≤ ++ <25%),++ (5% ≤ ++ <25%),++ (5% ≤ ++ <25%),+++ (25% ≤ +++ <50%),+ (LOQ ≤ + <5%),+ (LOQ ≤ + <5%),+++ (25% ≤ +++ <50%),+ (LOQ ≤ + <5%),+ (LOQ ≤ + <5%)

# Same assay, conditions: i.p. 15 min before behavioral test, most efficacious dose(s) of 3 doses
row,Structure (SMILES),XG: anxiogenic (probability that behavioral signature matches class)
1,"N#Cc1cccc2c1[C@H]([C@@H]1CCCN1)OCC2 [Compound I-38, (R)-1-((S)-pyrrolidin-2-yl)isochroman-8-carbonitrile]",+ (LOQ ≤ + <5%)
2,"COc1cccc2c1[C@H]([C@H]1CCCN1)OCC2 [Compound I-49, (R)-2-((R)-8-methoxyisochroman-1-yl)pyrrolidine]",+ (LOQ ≤ + <5%)
3,"Fc1ccc2c(c1)[C@@H](F)CO[C@H]2[C@@H]1CCCN1 [Compound I-138, (S)-2-((1R,4R)-4,6-difluoroisochroman-1-yl)pyrrolidine]",+ (LOQ ≤ + <5%)
4,"Fc1ccc2c(c1)[C@H](F)CO[C@H]2[C@@H]1CCN1 [Compound I-135, (2S)-2-((1R)-4,6-difluoroisochroman-1-yl)azetidine]",+ (LOQ ≤ + <5%)
5,"CC1(C)Cc2ccccc2[C@@H]([C@H]2CCCN2)O1 [Compound I-67, (R)-2-((S)-3,3-dimethylisochroman-1-yl)pyrrolidine]",+ (LOQ ≤ + <5%)
6,"c1ccc2c(c1)CCO[C@@H]2[C@@H]1CCCN1 [Compound I-17, (S)-2-((S)-isochroman-1-yl)pyrrolidine]",+ (LOQ ≤ + <5%)
7,"Fc1cccc2c1CCO[C@H]2[C@@H]1CCCN1 [Compound I-13, (S)-2-((R)-5-fluoroisochroman-1-yl)pyrrolidine]",+ (LOQ ≤ + <5%)
8,"Cc1cccc2c1[C@H]([C@@H]1CCCN1)OCC2 [Compound I-22, (S)-2-((R)-8-methylisochroman-1-yl)pyrrolidine]",+ (LOQ ≤ + <5%)
